# What was measured:
# Format in all cases: cell-based
# [1] = test system: lactic flora; experiment: Spoilage analysis of cooked emulsified sausage: lactic flora; details: cooked emulsified sausage during storage
# Description: (§1) A part was inoculated on surface with Listeria monocytogenes for the challenge test and the other part was kept safe for shelf life microbiological study as well as organoleptic and physical characterization. Cooked emulsified sausages were then stored in vacuum packaging.
# (§2) Microbiological analysis was performed according to current standard EC regulation 2073/2005, at d0 after packaging, several days during the storage (from D4 to D7 or D14 according to the studies).
# (§3) For cooked emulsified sausage, 14 days of shelf-life with 7 days of storage at 4° C. and 7 days at 8° C., to simulate a break in the cold chain (standardized method NF V01-003).
# (§4) Group of microorganisms counts performed are listed below: • Total plate count (NF EN ISO 4833-1), • Lactic acid bacteria (NF ISO 15214) both mesophilic and psychotrophic • Enterobacteriaceace (ISO 21528-2), • Pseudomonas sp. (EN ISO 13720), • Brochothrix thermosphacta • Anaerobic enumeration of sulfito-reducing bacteria (NF V08-061), • Challenge test Listeria monocytogenes (NF-EN ISO 11290-2). • Challenge test Salmonella (NF-EN ISO 6579-1).
# [2] = test system: Listeria monocytogenes; details: fresh ground sausage, d8
# [3] = test system: total flora (total plate count); experiment: Spoilage analysis of cooked emulsified sausage: total plate count; details: cooked emulsified sausage during storage
# Description: as §1, §2, §3, §4
substance,measurement,setting,value
lactate,Growth of lactic flora,[1],normal growth
same,Δ log cfu/g of Listeria growth versus untreated control,[2],−0.9 log cfu/g
same,Growth of total flora,[3],normal growth

# Source: patent publication US20230380460A1 (priority 2020, published 2023)
